Read-outs that look alike come from different tables or passages of the source.
Legend:
[1] = intranasally at 1.14-1.33 mg/kg, rat model, period from 15 to 120 minutes after administration; cited from earlier work
[2] = rat; for F: F = (AUCIN × DoseIV)/(AUCIV × DoseIN); for concentration at 0 minutes / concentration at 0.5 minutes / concentration at 5 minutes / concentration at 15 minutes / concentration at 30 minutes / concentration at 60 minutes / concentration at 120 minutes / concentration at 160 minutes / concentration at 240 minutes / concentration at 300 minutes / concentration at 360 minutes / concentration at 420 minutes / concentration at 480 minutes: Mean plasma concentration of THC
[3] = male, Sprague-Dawley, plasma, inhaled or intranasal, 9.84 mg/kg
[4] = male, Sprague-Dawley, plasma, inhaled or intranasal, 9.91 mg/kg
[5] = male, Sprague-Dawley, plasma, iv, 0.99 mg/kg
[6] = male, Sprague-Dawley, plasma, iv, 1 mg/kg, Intravenous (1 mg/kg), propylene glycol, n = 3, rat
[7] = male, Sprague-Dawley, plasma, other: intranasal, 10 mg/kg, Intranasal (10 mg/kg), 90:10 propylene glycol/ethanol, n = 5, rat
[8] = male, Sprague-Dawley, plasma, other: intranasal, 10 mg/kg, Intranasal (10 mg/kg), propylene glycol, n = 3, rat

SMILES: CCCCCc1cc(O)c2c(c1)OC(C)(C)[C@@H]1CCC(C)=C[C@@H]21 [THC, delta-9-tetrahydrocannabinol]
- analgesic response [1]: an analgesic response was observed
- F ([2]; Intranasal (IN), 90:10 propylene glycol/ethanol, 9.91 mg/kg): 0.138
- F ([2]; Intranasal (IN), propylene glycol, 9.84 mg/kg): 0.136
- F ([2]; Intravenous (IV), propylene glycol, 0.99 mg/kg): 1
- AUC [2, 3]: 428 ng·h/mL
- Cmax [2, 3]: 55 ng/mL
- Tmax [2, 3]: 3 h
- AUC [2, 4]: 434 ng·h/mL
- Cmax [2, 4]: 75 ng/mL
- Tmax [2, 4]: 2 h
- AUC [2, 5]: 314 ng·h/mL
- Cmax [2, 5]: 693 ng/mL
- Tmax [2, 5]: 0.0083 h
- concentration at 0 minutes [2, 6]: 0 ng/mL
- concentration at 0.5 minutes [2, 6]: 693 ng/mL
- concentration at 5 minutes [2, 6]: 136 ng/mL
- concentration at 15 minutes [2, 6]: 73 ng/mL
- concentration at 30 minutes [2, 6]: 48 ng/mL
- concentration at 60 minutes [2, 6]: 34 ng/mL
- concentration at 120 minutes [2, 6]: 24 ng/mL
- concentration at 160 minutes [2, 6]: 23 ng/mL
- concentration at 240 minutes [2, 6]: 21 ng/mL
- concentration at 300 minutes [2, 6]: 18 ng/mL
- concentration at 360 minutes [2, 6]: 22 ng/mL
- concentration at 420 minutes [2, 6]: 25 ng/mL
- concentration at 480 minutes [2, 6]: 12 ng/mL
- bioavailability ([2]; male, Sprague-Dawley, plasma, other: intranasal, 10 mg/kg): ~14%
- concentration at 0 minutes [2, 7]: 0 ng/mL
- concentration at 0.5 minutes [2, 7]: 0 ng/mL
- concentration at 5 minutes [2, 7]: 0 ng/mL
- concentration at 15 minutes [2, 7]: 24 ng/mL
- concentration at 30 minutes [2, 7]: 43 ng/mL
- concentration at 60 minutes [2, 7]: 59 ng/mL
- concentration at 120 minutes [2, 7]: 75 ng/mL
- concentration at 160 minutes [2, 7]: 54 ng/mL
- concentration at 240 minutes [2, 7]: 24 ng/mL
- concentration at 300 minutes [2, 7]: 20 ng/mL
- concentration at 360 minutes [2, 7]: 19 ng/mL
- concentration at 420 minutes [2, 7]: 16 ng/mL
- concentration at 480 minutes [2, 7]: 11 ng/mL
- concentration at 0 minutes [2, 8]: 0 ng/mL
- concentration at 0.5 minutes [2, 8]: 0 ng/mL
- concentration at 5 minutes [2, 8]: 0 ng/mL
- concentration at 15 minutes [2, 8]: 3 ng/mL
- concentration at 30 minutes [2, 8]: 13 ng/mL
- concentration at 60 minutes [2, 8]: 26 ng/mL
- concentration at 120 minutes [2, 8]: 38 ng/mL
- concentration at 160 minutes [2, 8]: 36 ng/mL
- concentration at 240 minutes [2, 8]: 51 ng/mL
- concentration at 300 minutes [2, 8]: 19 ng/mL
- concentration at 360 minutes [2, 8]: 17 ng/mL
- concentration at 420 minutes [2, 8]: 16 ng/mL
- concentration at 480 minutes [2, 8]: 16 ng/mL
